In patent US20240228434A1, “PRODRUGS OF KV7 CHANNEL OPENERS” (Xyzagen, Inc., priority 2021, published 2024):

Key:
[1] = Pharmacokinetics of ezogabine prodrugs in rat (IV, IM, PO); details: for Exposure of the prodrug itself in systemic circulation: rat, in vivo, po
Procedure: (§1) Blood was diluted by 10% with these stabilizers.
(§2) Extraction of the molecules was conducted by taking a 50 uL aliquot of plasma and adding 200 uL of acetonitrile containing 200 ng/mL tolbutamide as the internal standard. Samples were precipitated in a 96 well plate, centrifuges and an aliquot transferred to a new plate, dried down under heat and nitrogen and then reconstituted in the initial mobile phase conditions of the LC-MS/MS method. […] A standard curve was prepared from 5000 ng/mL to 1 ng/mL for each analyte. Concentration data from the bioanalytical run was analyzed by Phoenix Winnonlin version 8 for noncompartmental PK analysis, plotting of concentration time curves and tabulation of PK parameters.
150 uL of blood were collected at predesignated time points. At completion of the study animals were asphyxiated by carbon dioxide gas and exsanguinated for euthanasia.

[2] = In vitro rat plasma stability at 37° C.; type: in vitro ADME
Procedure: (§3) Plasma was collected by the biomaterial vendor and kept frozen at −20° C.
(§4) The samples were analyzed by HPLC separation and mass spectrometry detection for prodrug amount, relative to a baseline time 0 control sample. Triplicate samples were generated at each time point and the peak area response was averaged and converted to a percent of baseline control.

[3] = Acid and organic solution stability, HPLC-UV 250 nm; details: for Appearance of the stability solution / Degradation / conversion to ezogabine in solution (summary) / Ezogabine Area: 5 mg/mL; for Degradation / conversion to ezogabine in solution (summary): up to 3 weeks
Procedure: An HPLC-UV Vis method was developed using 0.1% Formic acid in water as mobile phase A and 0.1% Formic acid in acetonitrile as mobile Phase B. A gradient method was developed ramping from 10% A to 90% B over 8 minutes and then returning to 10% A at 8.5 minutes on a 4.6×50 mm Zorbax C-18 column. Injections of 10 uL of stability solutions were injected for analyte detection.
[…] Aliquots were collected at serial time points and then diluted to a nominal concentration of 100 ug/mL for injection to the HPLC and 250 nm monitored by the diode array detector. Data at approximately 10 days is presented.
Aliquots were collected at serial time points and then diluted to a nominal concentration of 100 ug/mL for injection to the HPLC and 250 nm monitored by the diode array detector.
(§5) It was also evaluated at 2 N HCl at 37° C. Aliquots were collected at serial time points and then diluted to a nominal concentration of 100 ug/mL for injection to the HPLC and 250 nm monitored by the diode array detector.
as §5, §5, §5

[4] = Solvent solubility assessment by visual inspection; type: physicochemical; details: 0.1N Na2HPO4
Procedure: Compounds were weighed and placed into a 4 dram vials and solvents were added to the target concentration. Compounds were vortex and visually inspected for particulates and considered soluble if clear upon visual inspection with and without magnification. Solubility was reported as either greater than (>) or less than (<) from the prepared concentration. […] It was evaluated at 10 mg/mL in 0.1 N NaCl and was freely soluble. It was evaluate at 1 mg/mL in 0.1 N NaOH and 0.1 N Na2HPO4 and was freely soluble. In ethanol and methanol it was freely soluble at a concentration of 75 mg/mL. […] It was freely soluble at 75 mg/mL in methanol and ethanol. It was soluble at 1 mg/mL in 1N HCl.

[5] = In vitro mouse plasma stability at 37° C.; type: in vitro ADME; details: 1000 ng/mL
Procedure: as §3, §4

[6] = Stability in solvents on the benchtop exposed to light, HPLC-UV 230 nm; type: physicochemical
Procedure: Compounds in solvent were left on the benchtop exposed to light for up to 7 days since it is known that Compound 1 will degrade with light within 3-7 days.
Stability was assessed by taking an aliquot from the solubility vials at each test day. A single replicate was injected for each test condition.
Samples were injected onto an HPLC system with an aqueous mobile phase and acetonitrile organic phase and compounds were separated on a C8 50×2 mm column. Wavelength 230 nm was monitored for absorption and integrated for peak area while the mass spectrometer was used to confirm mass. Samples were tested on Day 1 and on subsequent days through Day 7.

[7] = tested on: mechanical hypersensitivity in the CCI model; assay: CCI model of neuropathic pain (pin prick, von Frey hairs); type: in vivo, Sprague Dawley rat; details: 1 h after pretreatment
Procedure: Compound 3 was tested for reversal of mechanical hypersensitivity to the pin prick test for hindlimb paw withdraw and the von Frey hairs for gram force mechanical allodynia in the CCI model of neuropathic pain. Male Sprague Dawley rats (n=8/group) were tested for baseline sensitivity on Day 1 (ipsilateral and contralateral paws) and administered XYG-203 orally; 40 mg/kg on Day 1, 20 mg/kg Day 3, 10 mg/kg Day 5, 5 mg/kg Day 7, 1 mg/kg Day 10 and baseline on Day 12. Mechanical hypersensitivity was tested 1 h after pretreatment. Data (mean±SD) were analyzed with a repeated measures ANOVA with Dunnet's adjustment for multiple comparisons.

[8] = Rat PK at equimolar dose to Ezogabine (20 mg/kg) in 0.5% methylcellulose; details: for AUClast/D / Cmax/D: male jugular vein cannulated rats, dose equimolar to Ezogabine 20 mg/kg, 0.5% methylcellulose in water, analyte the dosed prodrug; for AUClast/D: 24 hours; for Exposure of ezogabine (dose normalized AUC) compared with ezogabine itself: rats, equimolar dose to Ezogabine 20 mg/kg
Procedure: (§6) Blood samples were collected at the same time points over 24 hours to generate a concentration time profile. Two male rats were dosed per group. Plasma samples were analyzed by LC/MS/MS and the resulting concentration time profiles and PK parameters are provided.
as §6, §6

[9] = patients receiving ezogabine (POTIGA); cited from earlier work
[10] = Pharmacokinetics of ezogabine prodrugs in mouse (SC, PO); details: male mice, PO 20 mg/kg Cmpd 1 dosed
Procedure: as §1
as §2, with “noncompartmental sparse sampling” for “noncompartmental”
Animals were asphyxiated by carbon dioxide gas, blood was collected by cardiac stick and they were euthanized by cervical dislocation.

MES induced seizures = assay: SD rat MES test after IM Compound 4; type: in vivo; details: IM 75 mg/kg
Procedure: All treatments were at 0.083, 0.25, 0.5, 1, 2, 4, and 8 hours prior to the administration of MES test, where 6 seconds where 6 seconds without a seizure was considered protected.

[11] = tested on: flicks/licks after intraplantar 5% formalin; assay: Formalin inflammatory pain model; type: in vivo, CD-1 mouse; details: SC 100 mg/kg in water 30 minutes before formalin; both phases (0-10 min, 15-40 min)
Procedure: Compound 4 was assessed in the rat formalin inflammatory model. The number of flicks/licks of a male CD-1 mouse in the acute phase 0-10 minute and the inflammatory phase from 15-40 min after intraplantar administration of 50 μL of 5% formalin was recorded. […] Data is presented over the duration of the observation periods in 2 minute bins.

[12] = Methanol, room temp., normal light, 437 h

CCOC(=O)Nc1ccc(NCc2ccc(F)cc2)cc1NC(=O)OC(C)OC(=O)C(C)C (stereo not shown) [Compound 3]
Exposure of the prodrug itself in systemic circulation [1]: very little exposure | Time to full degradation in vitro ([2]; 1000 ng/mL): ≤ 1 h | Appearance of the stability solution [3]: clear and colorless through Day 18 | Degradation / conversion to ezogabine in solution (summary) [3]: converts to ezogabine under acidic conditions but does not in organic solvent | Ezogabine Area ([3]; 0.1N HCl, room temp., normal light, 433 h): 400 mAU | Ezogabine Area ([3]; 1N HCl, room temp., normal light, 97 h): 2881 mAU | Appearance of the stability solution ([3]; 9 days): turned a golden yellow by Day 9 | Ezogabine Area ([3]; Acetonitrile, room temp., normal light, 435 h): 51 mAU | Ezogabine Area ([3]; Ethanol, room temp., normal light, 390 h): 43 mAU | Ezogabine Area ([3]; Methanol, room temp., normal light, 435 h): 41 mAU | Solubility [4]: <1000 µg/mL | Time to full degradation in vitro [5]: ≤ 1 h | Stability in solvent ([6]; 0.1N HCl, benchtop exposed to light): stable over 4 days | Stability in solvent ([6]; 1N HCl over 7 days, benchtop exposed to light): not stable | Stability in solvent ([6]; ethanol and methanol, benchtop exposed to light, degradation on Day 4): soluble and stable through 3 days | Mechanical hypersensitivity versus baseline ([7]; oral 5 mg/kg): 95% confidence intervals did not cross the baseline mean | Gram force to paw lift (von Frey hairs) ([7]; oral 40 mg/kg): increased the gram force to paw lift significantly | Reduction of the latency of neuropathic ipsilateral paw withdrawal ([7]; oral 40 mg/kg, pin prick, p=0.0003): 9.2 s | AUClast/D [8]: 0.0136 ng·h/mL/mg/kg | Cmax/D [8]: 0.0273 ng/mL/mg/kg | Total exposure of ezogabine on a given molar dose relative to ezogabine ([8]; male, rat, in vivo): > 2 fold

CCOC(=O)Nc1ccc(NCc2ccc(F)cc2)cc1NC(=O)[C@H](N)CO [Compound 6]
Degradation / conversion to ezogabine in solution (summary) [3]: very little degradation to ezogabine | Ezogabine Area ([3]; 1N HCl, room temp., normal light, 437 h): 58 mAU | Ezogabine Area ([3]; 2N HCl 37 C., 437 h): 461 mAU | Ezogabine Area ([3]; 2N HCl, room temp., normal light, 437 h): 177 mAU | Appearance of the stability solution ([3]; 18 days): remained clear and colorless through Day 18 | Ezogabine Area [3, 12]: 184 mAU | AUClast/D [8]: 199 ng·h/mL/mg/kg | Cmax/D [8]: 233 ng/mL/mg/kg | Exposure of ezogabine (dose normalized AUC) compared with ezogabine itself [8]: similar

CCOC(=O)Nc1ccc(NCc2ccc(F)cc2)cc1N [Compound 1, ezogabine]
AUClast/D ([1]; male Sprague Dawley rats, PO 20 mg/kg Cmpd 1 dosed, analyte Cmpd 1, AUClast […] h): 280 ng·h/mL/mg/kg | Adverse reaction: abnormal coordination [9]: 7% | Adverse reaction: aphasia [9]: 4% | Adverse reaction: asthenia [9]: 5% | Adverse reaction: balance disorder [9]: 4% | Adverse reaction: blurred vision [9]: 5% | Adverse reaction: confusional state [9]: 9% | Adverse reaction: diplopia [9]: 7% | Adverse reaction: disturbance in attention [9]: 6% | Adverse reaction: dizziness [9]: 23% | Adverse reaction: dysarthria [9]: 4% | Adverse reaction: fatigue [9]: 15% | Adverse reaction: gait disturbance [9]: 4% | Adverse reaction: memory impairment [9]: 6% | Adverse reaction: somnolence [9]: 22% | Adverse reaction: tremor [9]: 8% | Adverse reaction: vertigo [9]: 8% | Appearance of the stability solution ([3]; acid solutions, room temperature): turning light purple (indicating degradation) by Day 2 | Solubility ([3]; low pH): soluble | Behaviour at low pH ([3]; low pH (1 N HCl) and simulated gastric fluid): degrades and forms a chromophore dimer | Solubility ([3]; neutral pH): not soluble | Appearance of the stability solution ([3]; organic solvent solutions, room temperature): did not begin turning purple until Day 7 | Cmax/D ([10]; analyte Cmpd 1): 148 ng/mL/mg/kg | AUClast/D ([10]; analyte Cmpd 1, AUClast 6 h): 190 ng·h/mL/mg/kg

CCOC(=O)Nc1ccc(NCc2ccc(F)cc2)cc1NC(=O)[C@@H](N)CCCCN [Compound 4]
Exposure of the prodrug itself in systemic circulation [1]: slightly more detectable | Protection from MES induced seizures (MES induced seizures; at 1 h post dose): almost fully protected | Protection from MES induced seizures (MES induced seizures; from 2 through 8 hours post dose): fully protected | Reduction in behavioral response (flicks/licks) compared to vehicle [11]: 50% | Percent remaining ([2]; at 23 h): below 50% | Degradation / conversion to ezogabine in solution (summary) [3]: very little degradation to ezogabine | Ezogabine Area ([3]; 0.1N HCl, room temp., normal light, 269 h): 0 mAU | Ezogabine Area ([3]; 1N HCl, room temp., normal light, 269 h): 0 mAU | Ezogabine Area ([3]; 2N HCl 37 C., 436 h): 167 mAU | Ezogabine Area ([3]; 2N HCl, room temp., normal light, 269 h): 38 mAU | Appearance of the stability solution ([3]; 18 days): remained clear and colorless through Day 18 | Ezogabine Area [3, 12]: 0 mAU | Ezogabine Area ([3]; PBS, room temp., normal light, 435 h): 0 mAU | Solubility [4]: >1000 µg/mL | Plasma stability [5]: degrades by 6 hours | Stability in solvent ([6]; all test conditions except 0.1N NaOH, over 4 days): stable | AUClast/D [8]: 6.26 ng·h/mL/mg/kg | Cmax/D [8]: 2.34 ng/mL/mg/kg | Exposure of ezogabine (dose normalized AUC) compared with ezogabine itself [8]: similar
